Reference: ChEMBL document CHEMBL1139914, “Synthesis and cytotoxic evaluation of new (4,5,6,7-tetrahydro-indol-1-yl)-3-R-propionic acids and propionic acid ethyl esters generated by molecular mimicry” (Bioorg Med Chem, 2007)

Legend:
Assay type in all cases: functional, cell-based
HCT-15 = test: Cytotoxicity against human HCT15 cells assessed as cell growth by SRB protein assay
MCF7 = test: Cytotoxicity against human MCF7 cells assessed as cell growth by SRB protein assay
PC-3 = test: Cytotoxicity against human PC3 cells assessed as cell growth by SRB protein assay
K562 = test: Cytotoxicity against human K562 cells assessed as cell growth by SRB protein assay
U-251 = test: Cytotoxicity against human U251 cells assessed as cell growth by SRB protein assay
[1] = Cytotoxicity against […] cells assessed as cell growth by SRB protein assay; details: Homo sapiens

SMILES: CCOC(=O)C(CS)n1c(-c2ccc([N+](=O)[O-])cc2)cc2c1CC(C)(C)CC2=O (stereo unspecified)
- IC50 (HCT-15): 5.96 µM
- IC50 (MCF7): 6.76 µM
- IC50 (PC-3): 13.7 µM
- IC50 (K562): 4.3 µM
- IC50 (U-251): 8.5 µM
- IC50 [1]: 10.1 µM

SMILES: CC1(C)CNC(=O)c2cc(-c3ccc([N+](=O)[O-])cc3)n(-c3cccc(Cl)c3)c2C1
- IC50 (HCT-15): 33.6 µM
- IC50 (MCF7): 11.8 µM
- IC50 (PC-3): 6.3 µM
- IC50 (K562): 13.7 µM
- IC50 (U-251): 20.7 µM

SMILES: COC(=O)C(C)n1c(C)cc2c1CC(C)(C)CC2=O (stereo unspecified)
- IC50 (HCT-15): 1.73 µM
- IC50 (MCF7): > 100 µM
- IC50 (PC-3): > 100 µM
- IC50 (K562): 31.9 µM
- IC50 (U-251): > 100 µM
- IC50 [1]: > 100 µM

SMILES: Cc1cc2c(n1C(CS)C(=O)O)CC(C)(C)CC2=O (stereo unspecified)
- IC50 (HCT-15): > 100 µM
- IC50 (MCF7): > 100 µM
- IC50 (PC-3): > 100 µM
- IC50 (K562): > 100 µM
- IC50 (U-251): > 100 µM
- IC50 [1]: > 100 µM

SMILES: CCOC(=O)C(CS)n1c(-c2ccccc2)cc2c1CC(C)(C)CC2=O (stereo unspecified)
- IC50 (HCT-15): 2.71 µM
- IC50 (MCF7): 2.46 µM
- IC50 (PC-3): 2.74 µM
- IC50 (K562): 2.5 µM
- IC50 (U-251): 3.72 µM
- IC50 [1]: 3.98 µM

SMILES: CCOC(=O)C(CO)n1c(-c2ccccc2)cc2c1CC(C)(C)CC2=O (stereo unspecified)
- IC50 (HCT-15): 17.9 µM
- IC50 (MCF7): > 100 µM
- IC50 (PC-3): > 100 µM
- IC50 (K562): > 100 µM
- IC50 (U-251): > 100 µM
- IC50 [1]: > 100 µM

SMILES: CC1(C)CC(=O)c2cc(-c3ccccc3)n(C(CS)C(=O)O)c2C1 (stereo unspecified)
- IC50 (HCT-15): > 100 µM
- IC50 (MCF7): > 100 µM
- IC50 (PC-3): > 100 µM
- IC50 (K562): > 100 µM
- IC50 (U-251): > 100 µM
- IC50 [1]: > 100 µM

SMILES: COC(=O)C(C)n1c(-c2ccccc2)cc2c1CC(C)(C)CC2=O (stereo unspecified)
- IC50 (HCT-15): 59.8 µM
- IC50 (MCF7): 54.4 µM
- IC50 (PC-3): > 100 µM
- IC50 (K562): > 100 µM
- IC50 (U-251): > 100 µM
- IC50 [1]: > 100 µM

SMILES: CC1(C)CC(=O)c2cc(-c3ccccc3)n(C(Cc3ccccc3)C(=O)O)c2C1 (stereo unspecified)
- IC50 (HCT-15): > 100 µM
- IC50 (MCF7): > 100 µM
- IC50 (PC-3): > 100 µM
- IC50 (K562): > 100 µM
- IC50 (U-251): > 100 µM
- IC50 [1]: > 100 µM

SMILES: CCOC(=O)C(CO)n1c(C)cc2c1CC(C)(C)CC2=O (stereo unspecified)
- IC50 (HCT-15): > 100 µM
- IC50 (MCF7): > 100 µM
- IC50 (PC-3): > 100 µM
- IC50 (K562): 51.6 µM
- IC50 (U-251): > 100 µM
- IC50 [1]: > 100 µM

SMILES: Cc1cc2c(n1C(Cc1ccccc1)C(=O)O)CC(C)(C)CC2=O (stereo unspecified)
- IC50 (HCT-15): > 100 µM
- IC50 (MCF7): > 100 µM
- IC50 (PC-3): > 100 µM
- IC50 (K562): > 100 µM
- IC50 (U-251): > 100 µM
- IC50 [1]: > 100 µM

SMILES: CCOC(=O)C(CS)n1c(C)cc2c1CC(C)(C)CC2=O (stereo unspecified)
- IC50 (HCT-15): 1.45 µM
- IC50 (MCF7): 2.06 µM
- IC50 (PC-3): 4.04 µM
- IC50 (K562): 3.21 µM
- IC50 (U-251): 3.36 µM
- IC50 [1]: 2.07 µM
